Data: patent US9045563B2, “CXC chemokine receptor 4 (CXCR4) antagonistic polypeptide” (priority 2007, dated 2015)
Where two headings read alike, the source gives them in different places. Ends that are not written are not given here.

What was measured:
CCR5 = biological target: T1, CCR5 (Homo sapiens, UniProt P51681); assay: Ca2+ mobilization in HEK CCR5 cells (indo-1); format: cell-based; details: 50 μM peptide
T1 construct: expressed in transfected cells; host or cells: HEK293
Method: Ca^2+ responses were recorded.
FIG. 17. CXCR4 antagonistic activities of ALB derivatives. […] CXCR4 or CCR5 expressing HEK293 cells were treated with CXCR4 agonist CXCL12 (10 nM) or CCR5 agonist CCL5 (20 nM), respectively, in the absence (no ALB) or presence of indicated ALB derivatives (50 μM). Calcium responses were recorded as described. Data shown are mean values±standard deviation derived from duplicates relative to peak calcium responses after treatment with agonists only (100%). […] CXCR4 expressing HEK293 cells were treated with Texas Red labeled CXCL12 (CXCL12-Tr) in the presence or absence of ALB peptides. Real-time fluorescence monitoring of ligand-receptor interactions was carried out as described. Shown are bound CXCL12-Tr levels in the presence of ALB peptides relative to CXCL12-Tr only treated cells (100% bound). Values were derived from a duplicate experiment.

[1] = test system: dual tropic (CXCR4 and CCR5 using) variant 92ht593.1; assay: Infection of TZM-bl cells by dual tropic HIV-1, GalScreen; format: cell-based
Method: (§1) 5000 TZM-bl cells were seeded in 100 μl of DMEM (10% FCS, 100 U/ml of penicillin G and 100 μg/ml of streptomycin sulfate). ALB408-423 was dissolved in PBS (10 mg/ml). One day later, 20 μl serial dilutions of ALB408-423 in PBS were added to cells and cells were subsequently infected with 0.5 ng of p24 antigen HIV-1 in a total volume of 200 μl. HIV-1 molecular clones differing in coreceptor tropism were used and generated as described (Papkalla et al., J. Virol. 76: 8455-9, 2002).
(§2) FIG. 3: Chemically synthesized ALB408-423 specifically blocks X4 tropic HIV-1 infection. TZM-bl cells containing indicated dilutions of peptide were infected with HIV-1 variants differing in their coreceptor tropism. 3 days later Gal Screen assay was used to measure infection rates. […] B) Infection rates in the presence of 500 μg/ml ALB408-423 showing that the peptide specifically blocks X4 but not R5 tropic HIV-1 infection. Data shown are mean values±standard deviation derived from triplicate infections relative to PBS containing cells (100% infection).
(§3) After 3 days, infection was detected using GalScreen assay (TROPIX) (example 1). […] In contrast, CCR5 tropic HIV-1 variants were not inhibited even in the presence of very high doses of ALB408-423 (500 μg/ml) (FIG. 3B). Due to the specific inhibition of the infection caused by X4-tropic HIV-1 variants, it is to be assumed that ALB408-423 interacts with the chemokine receptor CXCR4.
(§4) Virus stocks were first titrated on TZM-bl cells. Then TZM-bl cells containing 100 μM of peptides were infected with infectivity normalized amounts of X4, dualtropic (X4/R5) or R5 tropic HIV-1.
(§5) FIG. 10. ALB408-423 and truncated ALB derivatives specifically block X4 tropic HIV-1 infection. TZM-bl cells either containing PBS or 100 μM of indicated peptides were infected with normalized infectivities of X4, dualtropic or R5 tropic HIV-1 clones. Infection rates were measured 2 days post infection using the GalScreen assay. Shown are mean values (% of PBS treated control)±standard deviations derived from triplicate measurements.

X4 tropic HIV-1 NL4-3 = details: TZM-bl cells
Method: HIV inhibition test were performed by seeding 4000 P4-R5 MAGI cells (P. Charneau et al., J. Mol. Biol. 241: 651, 1994) in 100 μl of DMEM (10% FCS, 100 U/ml penicillin G, and 100 μg/ml streptomycin sulfate). P4-R5 cells are stably transfected with an LTR-lacZ cassette and upon successful infection by HIV-1 will express—galactosidase in a Tat-dependent manner, which can be detected in a chemiluminescence test. On the following day, aliquots of the fractions were added. Therefor the lyophilized fractions were resuspended in 80 μl of DMEM, and 25 μl each thereof was pipetted to P4-R5 cells, incubated at 37° C. for 1 hour and subsequently infected with HIV-1 NL4—3 (1 ng of p24 antigen). Virus stocks were obtained by transient infection of 293T cells with proviral DNA by the calcium phosphate method (CalPhos™ Mammalian Transfection Kit, Clontech). Virus stocks were harvested 48 hours post transfection, filtrated and used for infection. Three days post infection, β-galactosidase activity in infected P4-R5 cells was detected using GalScreen assay (TROPIX) as recommended by the manufacturer. Briefly, supernatant was removed, 40 μl of a 1:1 dilution of PBS/GalScreen+substrate was added, followed by incubation at room temperature for 30 min. Then 30 μl of the lysates were transferred into 96 well lumiplates. Subsequently, the lumines-cence was detected as relative light units per second in a luminometer (Berthold, ORION). From all measurements, the mean β-galactosidase background activity of non-infected control cells was subtracted. % infection values for each infection were calculated relative to no peptide containing controls (100%). The enzyme activities in measurements without ALB408-423 were set at 100%, and all other values were based thereon. The final purification (7th step) was examined under exactly the same conditions in TZM-bl cells (X. Wei et al., Antimicrob. Agents Chemother. 46: 1896, 2002).
1.6 mg of fraction 31 from the 7th step in Example 1 was dissolved in 160 μl of DMEM. Subsequently, 10 μl of serial dilutions of fraction 31 containing ALB408-423 were added to 60 μl of TZM-bl cells (60 μl) and infected with 1 ng of p24 antigen HIV-1 NL4—3 in a total volume of 100 μl. Three days later, infection rates were determined in a GalScreen assay (see Example 1).
as §1
Table 1. Antiviral activity of various ALB fragments against X4 tropic HIV-1 NL4-3 infection. TZM-bl cells containing serial dilutions of synthetic peptides were infected with HIV-1 NL4-3 and infection rates were determined and calculated as described in example 1 and 2 at two days post infection. IC50 values were determined using the GraphPad Prism software package.
Various ALB408-423 derivatives containing N or C terminal deletions or amino acid substitutions (Table 1) were chemically synthesized and lyophilized peptides were dissolved in PBS. The antiviral activity was analyzed in TZM-bl cells using X4 tropic HIV-1 NL4-3 as described (example 4).

[2] = test system: CCR5 tropic HIV-1 variants; assay: Infection of TZM-bl cells by R5 tropic HIV-1 variants, GalScreen; format: cell-based
Method: as §1, §2, §3, §4, §5

T1 sequence (P51681 whole entry): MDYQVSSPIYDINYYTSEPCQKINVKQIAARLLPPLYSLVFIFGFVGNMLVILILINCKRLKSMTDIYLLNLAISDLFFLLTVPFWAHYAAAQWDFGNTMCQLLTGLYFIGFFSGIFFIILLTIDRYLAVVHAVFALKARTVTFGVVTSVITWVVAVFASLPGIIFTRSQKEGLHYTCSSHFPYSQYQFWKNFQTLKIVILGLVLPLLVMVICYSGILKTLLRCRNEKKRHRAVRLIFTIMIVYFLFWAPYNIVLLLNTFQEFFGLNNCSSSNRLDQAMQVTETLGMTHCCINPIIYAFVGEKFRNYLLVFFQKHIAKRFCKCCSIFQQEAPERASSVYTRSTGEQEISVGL

LVRYTKKVPQVSTPTL [ALB408-423, LVRYTKKVPQVSTPTL]
effect on CCL5-evoked calcium responses (CCR5; HEK CCR5 cells): no effect
agonism: calcium response induced by the peptide alone, CCR5 (CCR5; no chemokine): does not induce any calcium response
inhibition of dualtropic HIV-1 clone 92ht593.1 ([1]; 100 μM peptide): only moderately
inhibition of dual tropic variant 92ht593.1 ([1]; serial dilutions, compared with X4 tropic variants): blocked less efficiently
IC50 (X4 tropic HIV-1 NL4-3; read-out: IC50, X4 tropic HIV-1 infection (Example 5), HIV-1 NL4-3): 10 to 20 µM
IC50 (X4 tropic HIV-1 NL4-3; read-out: IC50 ± SEM, X4 tropic HIV-1 NL4-3, two days post infection, synthetic peptides): 7.6 ± 1.2 µM
effect on R5 tropic HIV-1 infection ([2]; 100 μM peptide): no effect
inhibition of CCR5 tropic HIV-1 variants ([2]; 500 μg/ml): not inhibited
